Laboratory results from PubChem BioAssay AID2060488 (Molecular Pharmacology Branch, DTP, NCI, 2025).

Test system: 966289-007-R4-J1-PDC complex spheroid viability
Assay: Anticancer human tumor 966289-007-R4-J1-PDC patient-derived pancreatic adenocarcinoma cell line growth inhibition [GQUAD]
Conditions: for IC50: curve of first compound; for viability, T/C: stronger effect = lower value; active = viability on the fitted dose curve at most 10% of control; inactive = the rest
Text: DNA G-quadruplex Stabilizer Agents in Combinations in Complex Spheroids
A high-throughput screen of multi-cell type tumor spheroids was designed to identify active combinations of DNA G-quadruplex stabilizer agents and targeted small molecules. Complex spheroids include a stromal component modeled by human endothelial cells (HUVEC) and fibroblasts modeled by human mesenchymal stem cells (MSCs). The concentration ranges selected for each drug and investigational agent were based upon clinically achievable concentrations if the clinical Cmax of the agent was known.
Compounds. The drugs and investigational agents: pidnarulex (CX-5461; NSC782164), APTO-253 (NSC789042), BRACO-19 (NSC847499), peposertib (NSC802822), ceralasertib (NSC780249), elimusertib (NSC800525), camonsertib (NSC841442), AZD-1390 (NSC803789), olaparib (NSC753686), talazoparib (NSC767125), ART-558 (NSC835418), sotorasib (NSC818433), MRTX-1133 (NSC836407), SN-38 (NSC673596), topotecan (NSC609699), etoposide (NSC141540), doxorubicin (NSC123127), gemcitabine (NSC613327), 5-fluorouracil (NSC19893), paclitaxel (NSC125973), vemurafenib (NSC761431), panobinostat (NSC761190), R-306465 (JNJ-16241199; NSC773264), adavosertib (NSC754352), TP-3654 (NSC805149), carboplatin (NSC241240), KSQ-4279 (NSC840948), and staurosporine (NSC755774) were obtained from the National Cancer Institute (NCI) Developmental Therapeutics Program Chemical Repository (34). The FDA-approved anticancer drug set is available from the NCI Developmental Therapeutics Program. […] The stock solutions were prepared in dimethyl sulfoxide (DMSO, Sigma-Aldrich, St. Louis, MO, cat. D2650) at 800-fold the tested concentration and stored at -70 degrees C prior to their use. All drugs and investigational agents were tested over a range starting from a high concentration at or near the clinical Cmax and decreasing in half-log increments. If the clinical Cmax for an agent had not been determined, the highest concentration tested was 10 microM.
2.3 Cell Culture. All cells were maintained in an incubator at 37 degrees C and 5% CO2 with 95% humidity. The PDC lines were cultured according to standard operating procedures established by the NCI PDMR. All PDCs were thawed and cultured in Matrigel-coated flasks prepared with a working solution of 1X Ham's F-12 nutrient mix, without supplementation (Invitrogen, cat. 11765054), 100 U/mL penicillin-streptomycin (Invitrogen, cat. 15140122), and 2.5% Matrigel (Corning Inc., cat. 354248) for the first three passages. The 857933-349-R-J2-PDC line was cultured in 6C/Colon 1B media, which includes advanced DMEM/F-12 (Thermo Fisher Scientific, cat. 12634028), 10 mM HEPES (Thermo Fisher Scientific, cat. 15630080), 1X GlutaMAX supplement (Thermo Fisher Scientific, cat. 35050061), 0.1 mg/mL primocin (InvivoGen, cat. ant-pm-2), 10% defined fetal bovine serum, heat inactivated (HyClone Laboratories Inc., cat. SH30070.03HI), 50% L-WRN conditioned media (ATCC, cat. CRL-3276), 1.25 mM N-Acetyl-L-cysteine (Sigma-Aldrich, cat. A9165), 10 mM nicotinamide (Sigma-Aldrich, cat. N0636), 1X B-27 supplement (Thermo Fisher Scientific, cat. 17504044), 1X N-2 supplement (Thermo Fisher Scientific, cat. 17502048), 10 microM Y-27632 dihydrochloride (Tocris Bioscience, cat. 1254), and 50 ng/mL human EGF recombinant protein (Thermo Fisher Scientific, cat. PHG0311). The 485176-168-R4-J1-PDC line was cultured in Panc media, which includes all 6C/Colon 1B media components plus 100 ng/mL human FGF-10 (Thermo Fisher Scientific, cat. 100-26), 500 nM SB-431542 (Selleckchem, cat. S1067), and gastrin (Tocris, cat. 3006).
[…]

[1] = second compound 0.0316 µM, first compound 0.0316 µM
[2] = second compound 0.0316 µM, first compound 0.316 µM
[3] = second compound 0.1 µM, first compound 0.0316 µM
[4] = second compound 0.1 µM, first compound 0.316 µM
[5] = second compound 0.316 µM, first compound 0.0316 µM
[6] = second compound 0.316 µM, first compound 0.316 µM
[7] = second compound 1 µM, first compound 0.0316 µM
[8] = second compound 1 µM, first compound 0.316 µM
[9] = second compound 3.16 µM, first compound 0.0316 µM
[10] = second compound 3.16 µM, first compound 0.316 µM
[11] = second compound 10 µM, first compound 0.0316 µM
[12] = second compound 10 µM, first compound 0.316 µM
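Also: spheroids exposed to the agents for seven days before readout.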
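For viability, T/C in this document: percent viability relative to DMSO vehicle control wells taken as 100%.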

C=CC(=O)N1CCN(c2nc(=O)n(-c3c(C)ccnc3C(C)C)c3nc(-c4c(O)cccc4F)c(F)cc23)C(C)C1 (centres undefined) + Cc1cnc(CNC(=O)c2c(=O)c3ccc(N4CCCN(C)CC4)nc3n3c2sc2ccccc23)cn1
< 31.6 nM: IC50 (second compound 0.1 µM) | IC50 (second compound 0.316 µM) | IC50 (second compound 1 µM) | IC50 (second compound 3.16 µM) | IC50 (second compound 10 µM)
inactive: viability, T/C [1] 109% | viability, T/C (second compound 0.0316 µM, first compound 0.1 µM) 102% | viability, T/C [2] 112% | viability, T/C (second compound 0.0316 µM, first compound 1 µM) 98% | viability, T/C (second compound 0.0316 µM, first compound 3.16 µM) 103% | viability, T/C (second compound 0.0316 µM, first compound 10 µM) 88.2% | viability, T/C [3] 31.1% | viability, T/C (second compound 0.1 µM, first compound 0.1 µM) 37.4% | viability, T/C [4] 37.1% | viability, T/C (second compound 0.1 µM, first compound 1 µM) 31.9% | viability, T/C (second compound 0.1 µM, first compound 3.16 µM) 37% | viability, T/C (second compound 0.1 µM, first compound 10 µM) 25.3% | viability, T/C [5] 11.3% | viability, T/C (second compound 0.316 µM, first compound 0.1 µM) 12.7% | viability, T/C [6] 11.5% | viability, T/C (second compound 0.316 µM, first compound 1 µM) 12.2% | viability, T/C (second compound 0.316 µM, first compound 3.16 µM) 13.4% | viability, T/C (second compound 0.316 µM, first compound 10 µM) 10.3%
active: viability, T/C [7] 7.08% | viability, T/C (second compound 1 µM, first compound 0.1 µM) 5.8% | viability, T/C [8] 5.81% | viability, T/C (second compound 1 µM, first compound 1 µM) 6.58% | viability, T/C (second compound 1 µM, first compound 3.16 µM) 9.48% | viability, T/C (second compound 1 µM, first compound 10 µM) 9.07% | viability, T/C [9] 4.85% | viability, T/C (second compound 3.16 µM, first compound 0.1 µM) 4.57% | viability, T/C [10] 5.54% | viability, T/C (second compound 3.16 µM, first compound 1 µM) 5.93% | viability, T/C (second compound 3.16 µM, first compound 3.16 µM) 7.14% | viability, T/C (second compound 3.16 µM, first compound 10 µM) 8.52% | viability, T/C [11] 0.11% | viability, T/C (second compound 10 µM, first compound 0.1 µM) 0.14% | viability, T/C [12] 0.14% | viability, T/C (second compound 10 µM, first compound 1 µM) 0.16% | viability, T/C (second compound 10 µM, first compound 3.16 µM) 2.33% | viability, T/C (second compound 10 µM, first compound 10 µM) 0.13%
> 10000 nM: IC50 (second compound 0.0316 µM)

Cn1ncnc1[C@H]1c2n[nH]c(=O)c3cc(F)cc(c23)N[C@@H]1c1ccc(F)cc1 + Cc1cnc(CNC(=O)c2c(=O)c3ccc(N4CCCN(C)CC4)nc3n3c2sc2ccccc23)cn1
active: viability, T/C [2] 7.23% | viability, T/C (second compound 0.1 µM, first compound 0.0999 µM) 5.67% | viability, T/C [4] 3.67% | viability, T/C (second compound 0.316 µM, first compound 0.00999 µM) 7.01% | viability, T/C [5] 6.26% | viability, T/C (second compound 0.316 µM, first compound 0.0999 µM) 4.34% | viability, T/C [6] 2.5% | viability, T/C (second compound 1 µM, first compound 0.000999 µM) 5.61% | viability, T/C (second compound 1 µM, first compound 0.00316 µM) 5.81% | viability, T/C (second compound 1 µM, first compound 0.00999 µM) 4.63% | viability, T/C [7] 3.57% | viability, T/C (second compound 1 µM, first compound 0.0999 µM) 2.89% | viability, T/C [8] 1.85% | viability, T/C (second compound 3.16 µM, first compound 0.000999 µM) 4.32% | viability, T/C (second compound 3.16 µM, first compound 0.00316 µM) 4.8% | viability, T/C (second compound 3.16 µM, first compound 0.00999 µM) 3.43% | viability, T/C [9] 2.17% | viability, T/C (second compound 3.16 µM, first compound 0.0999 µM) 0.89% | viability, T/C [10] 0.51% | viability, T/C (second compound 10 µM, first compound 0.000999 µM) 0.1% | viability, T/C (second compound 10 µM, first compound 0.00316 µM) 0.15% | viability, T/C (second compound 10 µM, first compound 0.00999 µM) 0.12% | viability, T/C [11] 0.13% | viability, T/C (second compound 10 µM, first compound 0.0999 µM) 0.66% | viability, T/C [12] 0.13%
inactive: viability, T/C (second compound 0.0316 µM, first compound 0.000999 µM) 110% | viability, T/C (second compound 0.0316 µM, first compound 0.00316 µM) 98.6% | viability, T/C (second compound 0.0316 µM, first compound 0.00999 µM) 85.6% | viability, T/C [1] 25.9% | viability, T/C (second compound 0.0316 µM, first compound 0.0999 µM) 12.9% | viability, T/C (second compound 0.1 µM, first compound 0.000999 µM) 42.7% | viability, T/C (second compound 0.1 µM, first compound 0.00316 µM) 25.4% | viability, T/C (second compound 0.1 µM, first compound 0.00999 µM) 17.3% | viability, T/C [3] 12.5% | viability, T/C (second compound 0.316 µM, first compound 0.000999 µM) 13.8% | viability, T/C (second compound 0.316 µM, first compound 0.00316 µM) 10%
< 0.999 nM: IC50 (second compound 0.1 µM) | IC50 (second compound 0.316 µM) | IC50 (second compound 1 µM) | IC50 (second compound 3.16 µM) | IC50 (second compound 10 µM)
19.9 nM: IC50 (second compound 0.0316 µM)
